A word on the mortality: it is the share of the test organisms that died.

Experimental findings from patent publication US8119563B2, “N-substituted azacycles” (FMC Corporation, priority 2003, dated 2012) are described below.

For this data set, the system named is tobacco budworm (Heliothis virescens [Fabricius]). The data set can be described thus: surface-treated diet test, insecticidal activity against tobacco budworm. Details: mortality: concentration or dose not given beside the values. To be noted: 0.25 millimoles of candidate insecticide on the surface of the diet, second instar larvae, five-day exposure. It counts as in vivo. In outline: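 Wheat germ artificial diet surface-treated with compound from 50 mM DMSO stock diluted 1:7 in 1:1 water/acetone (0.25 millimolar on diet), or lower-rate dilutions; DMSO-only controls. One second-instar larva per well, 25° C, 60% RH, 14 h light, five days; percent weight inhibition versus untreated and percent mortality scored.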

The mark [1] stands for this setting: compared to total number of insects infested.
Where [2] appears, read: inhibition of insect weight relative to untreated controls.

With `CON=C(Cl)c1ccc(CN2CCC(O)(C(c3ccc(OC(F)(F)F)cc3)c3ccc(OC(F)(F)F)cc3)CC2)cc1` [Compound 277], under setting [1], the “Percent Mortality” value was 100%. Further, the “Percent Growth Inhibition” value under setting [2] was determined as 100%.
As to `CCOC(=O)COc1ccc(CN2CCC(O)(C(c3ccc(OC(F)(F)F)cc3)c3ccc(OC(F)(F)F)cc3)CC2)cc1` [Compound 279], the “Percent Mortality” value under setting [1] came out at 83%. Further, the “Percent Growth Inhibition” value under setting [2] is reported as 100%.
Turning to `CC1(C)COC(c2ccc(CN3CCC(O)(C(c4ccc(OC(F)(F)F)cc4)c4ccc(OC(F)(F)F)cc4)CC3)cc2)OC1` [Compound 280], the “Percent Mortality” value under setting [1] is 100%. Further, the “Percent Growth Inhibition” value under setting [2] came to 100%.
On to `N#Cc1cccnc1Oc1ccc(CN2CCC(O)(C(c3ccc(OC(F)(F)F)cc3)c3ccc(OC(F)(F)F)cc3)CC2)cc1` [Compound 281], for which the “Percent Mortality” value under setting [1] came out at 100%. The “Percent Growth Inhibition” value under setting [2] turned out to be 100%.
Turning to `N#Cc1ccc(Oc2ccc(CN3CCC(O)(C(c4ccc(OC(F)(F)F)cc4)c4ccc(OC(F)(F)F)cc4)CC3)cc2)nc1` [Compound 283], under setting [1], the “Percent Mortality” value worked out at 100%. For the same molecule, the “Percent Growth Inhibition” value under setting [2] was determined as 100%.
For the molecule `CONC(=O)c1ccc(CN2CCC(O)(C(c3ccc(OC(F)(F)F)cc3)c3ccc(OC(F)(F)F)cc3)CC2)cc1` [Compound 285], the “Percent Mortality” value under setting [1] came out at 100%. Besides, the “Percent Growth Inhibition” value under setting [2] is 100%.
Regarding `OC1(C(c2ccc(OC(F)(F)F)cc2)c2ccc(OC(F)(F)F)cc2)CCN(Cc2ccc(Oc3cccc(Cl)c3)cc2)CC1` [Compound 286], under setting [1], the “Percent Mortality” value turned out to be 100%. Under setting [2], the “Percent Growth Inhibition” value came to 100%.
As to `OC1(C(c2ccc(OC(F)(F)F)cc2)c2ccc(OC(F)(F)F)cc2)CCN(Cc2ccc(Oc3ccc(Cl)cc3)cc2)CC1` [Compound 290], the “Percent Mortality” value under setting [1] is on record as 100%. The “Percent Growth Inhibition” value under setting [2] came to 100%.
In the case of `CCOC(=O)COc1ccc(CN2CCC(O)(C(c3ccc(C(F)(F)F)cc3)c3ccc(C(F)(F)F)cc3)CC2)cc1` [Compound 291], under setting [1], the “Percent Mortality” value amounted to 17%. The “Percent Growth Inhibition” value under setting [2] came out at 100%.
On the same counts, the results for `OC1(C(c2ccc(OC(F)(F)F)cc2)c2ccc(OC(F)(F)F)cc2)CCN(Cc2ccc(C3OCCCO3)cc2)CC1` [Compound 292] are 100% and 100%.
For `OC1(C(c2ccc(OC(F)(F)F)cc2)c2ccc(OC(F)(F)F)cc2)CCN(Cc2ccc(OCC=C(Cl)Cl)cc2)CC1` [Compound 293], the “Percent Mortality” value under setting [1] is reported as 100%. The “Percent Growth Inhibition” value under setting [2] was 100%.
In the case of `OC1(C(c2ccc(OC(F)(F)F)cc2)c2ccc(OC(F)(F)F)cc2)CCN(Cc2ccc(Oc3ccccc3Cl)cc2)CC1` [Compound 297], the “Percent Mortality” value under setting [1] is 100%. Moreover, the “Percent Growth Inhibition” value under setting [2] worked out at 100%.
On to `O=C(NC1CC1)Oc1ccc(CN2CCC(O)(C(c3ccc(OC(F)(F)F)cc3)c3ccc(OC(F)(F)F)cc3)CC2)cc1` [Compound 298], for which the “Percent Mortality” value under setting [1] is 100%. Also, the “Percent Growth Inhibition” value under setting [2] is listed as 100%.
On to `OC1(C(c2ccc(C(F)(F)F)cc2)c2ccc(C(F)(F)F)cc2)CCN(Cc2ccc(OCC3CC3)cc2)CC1` [Compound 299], for which, under setting [1], the “Percent Mortality” value amounted to 100%. Moreover, the “Percent Growth Inhibition” value under setting [2] turned out to be 100%.
For `CCCNC(=O)Oc1ccc(CN2CCC(O)(C(c3ccc(OC(F)(F)F)cc3)c3ccc(OC(F)(F)F)cc3)CC2)cc1` [Compound 300], the “Percent Mortality” value under setting [1] came to 100%. Also, the “Percent Growth Inhibition” value under setting [2] stood at 100%.
Take `OC1(C(c2ccc(OC(F)(F)F)cc2)c2ccc(OC(F)(F)F)cc2)CCN(Cc2ccc(C=NOCC(F)(F)F)cc2)CC1` [Compound 301]: under setting [1], the “Percent Mortality” value is on record as 100%. Moreover, under setting [2], the “Percent Growth Inhibition” value is recorded as 100%.
Turning to `Oc1ccc(CN2CCC(O)(C(c3ccc(C(F)(F)F)cc3)c3ccc(C(F)(F)F)cc3)CC2)cc1` [Compound 302], under setting [1], the “Percent Mortality” value is 17%. Under setting [2], the “Percent Growth Inhibition” value is 100%.
In the case of `CC(C)Oc1ccc(CN2CCC(O)(C(c3ccc(C(F)(F)F)cc3)c3ccc(C(F)(F)F)cc3)CC2)cc1` [Compound 303], the “Percent Mortality” value under setting [1] was 100%. The “Percent Growth Inhibition” value under setting [2] was 100%.
Regarding `OC1(C(c2ccc(OC(F)(F)F)cc2)c2ccc(OC(F)(F)F)cc2)CCN(Cc2ccc(OCc3ccccc3)cc2)CC1` [Compound 304], the “Percent Mortality” value under setting [1] was found to be 100%. Also, the “Percent Growth Inhibition” value under setting [2] amounted to 100%.
On to `CC(C)=CCCC(C)=CCON=Cc1ccc(CN2CCC(O)(C(c3ccc(OC(F)(F)F)cc3)c3ccc(OC(F)(F)F)cc3)CC2)cc1` [Compound 305], for which the “Percent Mortality” value under setting [1] was determined as 0%. Besides, under setting [2], the “Percent Growth Inhibition” value came to 31%.
Taken in the same sequence, the figures for `OC1(C(c2ccc(OC(F)(F)C(F)C(F)(F)F)cc2)c2ccc(OC(F)(F)C(F)C(F)(F)F)cc2)CCN(Cc2ccc(Oc3ncccn3)cc2)CC1` (centres unmarked) [Compound 306] were 100% and 100%.
On the same counts, the results for `OC1(C(c2ccc(C(F)(F)F)cc2)c2ccc(C(F)(F)F)cc2)CCN(Cc2ccc(Oc3ccc(Cl)nn3)cc2)CC1` [Compound 307] are 100% and 100%.
For `COCCOc1ccc(CN2CCC(O)(C(c3ccc(OC(F)(F)F)cc3)c3ccc(OC(F)(F)F)cc3)CC2)cc1` [Compound 308, 4-{bis[4-(trifluoromethoxy)phenyl]methyl}-1-{[4-(2-methoxyethoxy)phenyl]methyl}piperidin-4-ol], the mortality (Heliothis virescens, 120 h, compared to total number of insects infested, read-out: Percent Mortality) is 100%. The pest or weed control at 0.25 mmol/well (Heliothis virescens, 120 h, inhibition of insect weight relative to untreated controls, read-out: Percent Growth Inhibition) was 100%.
As for `OC1(C(c2ccc(OC(F)(F)F)cc2)c2ccc(OC(F)(F)F)cc2)CCN(Cc2ccc(-c3ccccn3)cc2)CC1` [Compound 309], the “Percent Mortality” value under setting [1] is 100%. Under setting [2], the “Percent Growth Inhibition” value was 100%.
For the molecule `CCCOC(=O)Nc1ccc(CN2CCC(O)(C(c3ccc(OC(F)(F)F)cc3)c3ccc(OC(F)(F)F)cc3)CC2)cc1` [Compound 310], the “Percent Mortality” value under setting [1] was 100%. Moreover, the “Percent Growth Inhibition” value under setting [2] turned out to be 100%.
As to `CC(C)(C)NC(=O)Oc1ccc(CN2CCC(O)(C(c3ccc(OC(F)(F)F)cc3)c3ccc(OC(F)(F)F)cc3)CC2)cc1` [Compound 311], under setting [1], the “Percent Mortality” value is 100%. Further, the “Percent Growth Inhibition” value under setting [2] came out at 100%.
In the case of `OC1(C(c2ccc(OC(F)(F)F)cc2)c2ccc(OC(F)(F)F)cc2)CCN(Cc2ccc(C=NOCCF)cc2)CC1` [Compound 312], under setting [1], the “Percent Mortality” value came out at 100%. Further, the “Percent Growth Inhibition” value under setting [2] is recorded as 100%.
On to `CCCOC(=O)Nc1ccc(CN2CCC(O)(C(c3ccc(C(F)(F)F)cc3)c3ccc(C(F)(F)F)cc3)CC2)cc1` [Compound 313], for which the “Percent Mortality” value under setting [1] amounted to 100%. For the same molecule, the “Percent Growth Inhibition” value under setting [2] is listed as 100%.
For `OC1(C(c2ccc(OC(F)(F)F)cc2)c2ccc(OC(F)(F)F)cc2)CCN(Cc2ccc(OCC3CC3)cc2)CC1` [Compound 315], the “Percent Mortality” value under setting [1] is on record as 100%. For the same molecule, the “Percent Growth Inhibition” value under setting [2] is given as 100%.
For the molecule `OC1(C(c2ccc(C(F)(F)F)cc2)c2ccc(C(F)(F)F)cc2)CCN(Cc2ccc(OCc3ccccc3)cc2)CC1` [Compound 316], the “Percent Mortality” value under setting [1] was 67%. Besides, the “Percent Growth Inhibition” value under setting [2] came out at 100%.
On the same counts, the results for `CCOC(=O)CNC(=O)Oc1ccc(CN2CCC(O)(C(c3ccc(OC(F)(F)F)cc3)c3ccc(OC(F)(F)F)cc3)CC2)cc1` [Compound 317] are 100% and 100%.
